# Source: patent publication US11203582B2, “Benzamide derivatives for inhibiting endoplasmic reticulum (ER) stress” (The Board of Regents of the University of Oklahoma, priority 2017, dated 2021)
# Legend:
# Assay type in all cases: cell-based, rat
# INS1 mRNA = test: qRT-PCR of INS1 mRNA in Tm-treated INS-1 cells; conditions: Tm co-treatment, 24 h
# Description: (§1) (A-D) INS-1 cells were treated with or without Tm (0.1 m/mL) in the presence of 13d at indicated concentrations or DMSO for 24 h. The mRNA levels of INS1 (A), INS2 (B), PDX1 (C), and MafA (D), were analyzed by qRT-PCR. Relative mRNA levels were normalized against the housekeeping gene Cyclophilin A using the comparative CT method. The results are the means of 3 replicate wells and are representative of 3 independent experiments. * P<0.05 and ** P<0.01 compared with Tm treatment alone. Bars indicate SD. (E) Insulin secretion by INS-1 cells incubated with 1.7 mM and 20 mM glucose in the presence or absence of Tm (0.1 μg/mL) and 13d. Secreted insulin was measured by ELISA after 24 h treatment. * P<0.05. The amount of insulin secreted in response to 1.7 mM glucose in the absence of Tm was set to 1.0 and was normalized with total protein concentration.
# (§2) INS-1 cells were seeded at 4×10^5 cells/well in 6-well plates and treated with compounds for the indicated times. […] Relative mRNA levels were normalized against the housekeeping gene Cyclophilin A and were determined by ΔΔCt calculated from the difference in ΔCt values between the target gene and Cyclophilin A with and without treatment, based on comparative CT (cycle threshold) method. […]
# PDX1 mRNA = test: qRT-PCR of PDX1 mRNA in Tm-treated INS-1 cells; conditions: Tm co-treatment, 24 h
# Description: as §1, §2
# CHOP mRNA = test: qRT-PCR of CHOP mRNA in INS-1 cells
# Description: (§3) (A, B) INS-1 cells were treated with or without Tm (0.1 μg/mL) in the presence of 13d or DMSO for 8 h. ATF4 (A) and CHOP (B) mRNA levels were analyzed by qRT-PCR. Relative mRNA levels were normalized against the housekeeping gene Cyclophilin A using the comparative CT method. The results were expressed as the fold-increase over mRNA levels in untreated control cells and are the means of 3 replicate wells and representative of 3 independent experiments. ** P<0.01 compared with Tm treatment alone. Bar indicates SD. (C-E) INS-1 cells were treated with or without Tm (0.1 μg/mL) in the presence of 13d or DMSO for 8 hATF4 and CHOP protein levels were determined by Western blotting (C). α-Tubulin was used as an internal control. Quantification of ATF4 (D) and CHOP (E) protein levels was analyzed by ImageJ program, which was normalized by α-Tubulin protein level. The data shown are representative of 3 independent experiments.
# Having established that compound 13d restores ER stress-impaired β-cell survival and function, we next investigated the mechanism of action by which 13d protects β-cells against ER stress. Chronic or severe ER stress activates all three branches of the UPR, PERK, IRE1α, and ATF6, leading to eventual cell death. First, we determined the effect of 13d on the activation of the PERK pathway in β-cells under ER stress. PERK activation phosphorylates eukaryotic translation initiator factor 2α (eIF2α), which in turn allows for the up-regulation of activating transcription factor 4 (ATF4) and of the pro-apoptotic gene C/EBP-homologous protein (CHOP). Thus, we used ATF4 and CHOP expression levels as markers of PERK pathway activation. […]
# as §2
# XBP1s mRNA = XBP1s mRNA (qRT-PCR and RT-PCR with gel electrophoresis) in Tm-treated INS-1 cells; conditions: Tm 0.1 μg/mL co-treatment, 8 h
# Description: INS-1 cells were treated with or without Tm (0.1 μg/mL) in the presence of 13d or DMSO for 8 h. (A) XBP1s mRNA levels were analyzed by qRT-PCR. Relative mRNA levels were normalized against the housekeeping gene Cyclophilin A using the comparative CT method. ** P<0.01 compared with Tm treatment alone. Bars indicate SD. (B) XBP1 mRNA levels were analyzed by RT-PCR and the products were resolved by agarose gel electrophoresis. The full-length (unspliced, XBP1u) and spliced (XBP1s) forms of XBP1 mRNA are indicated. Cyclophilin A mRNA was used as a loading control. Quantification was analyzed by ImageJ program shown at the bottom. The data shown are representative of 3 independent experiments.
# Next, we determined the effect of 13d on the activation of IRE1α in β-cells under ER stress. […] We therefore used XBP1 splicing as a marker for the activation of the IRE1α pathway and determined the effect of 13d on IRE1α-mediated XBP1 splicing in INS-1 cells in the presence of Tm.
# as §2
# ATF4 mRNA = test: qRT-PCR of ATF4 mRNA in INS-1 cells
# Description: as §3
# Having established that compound 13d restores ER stress-impaired β-cell survival and function, we next investigated the mechanism of action by which 13d protects β-cells against ER stress. Chronic or severe ER stress activates all three branches of the UPR, PERK, IRE1α, and ATF6, leading to eventual cell death. First, we determined the effect of 13d on the activation of the PERK pathway in β-cells under ER stress. […]
# INS-1 cells = test: Live-cell phase-contrast imaging of Tm-treated INS-1 cells; set-up: dose or concentration left out as unconfirmed; conditions: 48 h, FIG. 3B
# Description: (A) INS-1 cells were treated with or without Tm (0.1 m/mL) in the presence of 13d at indicated concentrations or DMSO for 24 h. Cleaved caspase-3 and PARP were determined by Western blotting. α-Tubulin was used as a loading control. The data shown are representative of 3 independent experiments. (B) INS-1 cells were treated with or without Tm (0.1 m/mL) in the presence of 13d (0.111M) or DMSO for 48 h, and live-cell phase-contrast images were acquired (magnification 10×). The images shown are representative of 3 independent experiments. (C) TUNEL staining of INS-1 cells. INS-1 cells were treated with 0.111 g/mL of Tm with or without compound 13d for 24 h before TUNEL staining. DAPI was used as a nuclear marker. Magnification is 20×. The images shown are representative of 3 independent experiments. (D) Quantification of TUNEL staining from 20 fields of images. ** P<0.01 compared with Tm treatment alone.
# INS2 mRNA = test: qRT-PCR of INS2 mRNA in Tm-treated INS-1 cells; conditions: Tm co-treatment, 24 h
# Description: as §1, §2
smiles,measurement,setting,value
"O=C(NCc1ccc(C(F)(F)F)cc1)c1cccc(CN2CCCCC2)c1 [Compound 13d, N-(4-trifluoromethylphenmethyl)-3-(N-piperidinyl)methyl benzamide]",Tm-suppressed INS1 mRNA level,INS1 mRNA,completely rescued
same,Tm-decreased PDX1 mRNA expression level,PDX1 mRNA,completely rescued
same,Tm-induced increase in CHOP mRNA level,"CHOP mRNA; Tm 0.1 μg/mL co-treatment, 8 h",almost completely abolished
same,IC50,"CHOP mRNA; Tm, 8 h, read-out: IC50 for inhibition of Tm-induced CHOP expression",37 nM
same,effect on CHOP mRNA level on its own,CHOP mRNA; without Tm,no effect
same,Tm-induced increase in XBP1s mRNA level (qRT-PCR),XBP1s mRNA,abolished
same,"Tm-induced generation of XBP1s mRNA (RT-PCR, electrophoretic separation)",XBP1s mRNA; FIG. 6B,inhibits
same,Tm-induced increase in ATF4 mRNA level,"ATF4 mRNA; Tm 0.1 μg/mL co-treatment, 8 h",almost completely abolished
same,effect on ATF4 mRNA level on its own,ATF4 mRNA; without Tm,no effect
same,viable INS-1 cells with Tm co-treatment vs Tm alone,INS-1 cells,significantly more viable INS-1 cells
same,Tm-suppressed INS2 mRNA level,INS2 mRNA,completely rescued
